The nature of data set [1]: acute toxicity (LD50), single oral administration to mice. The note with it: mouse, in vivo. As for the experimental part: (§1) In this animal experiment the compound under investigation is administered orally to mice and 30 minutes later there are administered intraperitoneally 120 mg/kg of pentetrazole, which causes emprosthotonus and tonic stretchings of the fore and/or hind limbs in unprotected animals 1-4 minutes after the injection. 10 experimental animals are used per dosage of test substance. After counting the protected experimental animals the ED50 is determined according to the Probit method. The ED50 is that dosage which protects 50% of the experimental animals from the spasmodic seizures caused by pentetrazole. The results which have been obtained with representative members of the class of compound defined by formula I in the experiment described previously are compiled in the following Table. Moreover, the Table contains data concerning the acute toxicity (LD50) of some of these compounds in mg/kg in the case of single oral administration to mice.

Data set [2] deals with spasmodic seizures caused by pentetrazole. In words: antipentetrazole test (mice, oral). Format: in vivo. The note with it: Mus musculus, 0.5 h, 30 minutes before 120 mg/kg pentetrazole i.p., dosage protecting 50% of animals, Probit method. The method, then: As mentioned earlier, the compounds of formula I have valuable pharmacological properties. In particular they display pronounced muscle relaxant, sedative-hypnotic, anticonvulsive and/or anxiolytic properties and have only a low toxicity.
as §1

What is called LD50 is the dose expected to kill half of the subjects tested. For orientation: ED50 means the dose at which the effect has come halfway, by size or by number of responders. A lower ED50 goes with greater potency. Turning to `COC1CN(C(=O)c2cc(-c3ccccc3)c(=O)n3ncc4ccccc4c23)C1` [Compound A, 3-methoxy-1-[(4-oxo-3-phenyl-4H-pyrido-[2,1-a]phthalazin-1-yl)carbonyl]azetidine], the LD50 in data set [1] worked out at 1500 mg/kg. Moreover, in data set [2], it took a dose of 1.1 mg/kg to reach the 50% effect level (ED50).
In turn, `COC1CN(C(=O)c2cc(-c3ccccc3)c(=O)n3ncc4ccc(Cl)cc4c23)C1` [Compound F, 1-[(10-Chloro-4-oxo-3-phenyl-4H-pyrido[2,1-a]-phthalazin-1-yl)carbonyl]-3-methoxyazetidine] came in with an LD50 in data set [1] of 5000 mg/kg. Also, it took a dose of 0.79 mg/kg to reach the 50% effect level in data set [2] (ED50).
For `CN(C)C(=O)c1cc(-c2ccccc2)c(=O)n2ncc3ccc(Cl)cc3c12` [Compound G, N,N-Dimethyl-10-chloro-4-oxo-3-phenyl-4H-pyrido[2,1-a]phthalazine-1-carboxamide], the median lethal dose (LD50) in data set [1] was found to be 5000 mg/kg. In data set [2], this compound showed a 50% effective dose (ED50) of 0.08 mg/kg.
The like results for `CCN(CC)C(=O)c1cc(-c2ccccc2)c(=O)n2ncc3ccc(Cl)cc3c12` [Compound H, N,N-Diethyl-10-chloro-4-oxo-3-phenyl-4H-pyrido[2,1-a]phthalazine-1-carboxamide] were, in that order, over 4000 mg/kg and 0.66 mg/kg.
In data set [1], `COC1CN(C(=O)c2cc(-c3ccccc3)c(=O)n3ncc4ccsc4c23)C1` [Compound M, 3-Methoxy-1-[(7-oxo-8-phenyl-7H-pyrido-[1,2-b]thieno[2,3-d]pyridazin-10-yl)carbonyl]-azetidine] yielded a median lethal dose (LD50) of 5000 mg/kg. In data set [2], this compound returned an ED50 of 0.83 mg/kg.

The values above are taken from patent US5114934A, “Tricyclic pyridone derivatives” (Hoffman-La Roche, Inc., priority 1985, dated 1992).
